Data taken from US4394388A, “Method for the control of cattle grubs employing m-phenoxybenzyl and .alpha ” (American Cyanamid Company, priority 1981, dated 1983).

Tested on: Cuterebra sp.
Experiment: In vivo larvicidal activity against Cuterebra sp. in artificially infested mice (dermal dip)
Conditions: mice infested with 5 newly-hatched larvae, body dipped in emulsion 48 h later, larvae examined four days after treatment; for Dermal (mice) Dosage % LC50: concentration killing 50% of larvae; for Dermal (mice) Dosage % LC90: concentration killing 90% of larvae
Method: The larvidical activity of the compounds of the invention may be conveniently evaluated by a method accepted by the U.S. Agricultural Research Service, in which mice infected with Cuterebra spp. are treated topically with the compounds under evaluation.
White mice are artificially infested nasally, buccally, or ocularly with 5 newly-hatched larvae of Cuterebra sp. For dermal tests, 48 hours later a plastic collar is placed around the neck of each male mouse, and the portion of the body behind the collar is dipped in 200 ml of an emulsion of a test compound. A standard emulsifiable concentrate consists of 25 parts of test compound, 65 parts of xylene and 10 parts octylphenoxy polyethoxy ethanol of average molecular weight equal to 628 and having from 9 to 10 ethylene oxide units.
The skin of each mouse is examined carefully for encapsulated live larvae four days after treatment. Effectiveness of the treatments is determined by comparing numbers of larvae encapsulated in treated mice with numbers found in untreated control mice. Usually 3 mice/concentration are treated. if mice or the larvae are killed at the initial concentration of 1%, lower concentrations (0.6, 0.3, 0.2, 0.1%, etc.) are tested until there is no systemic activity or the mice survive.
Mortality data are subjected to log-prohibit analysis in order to determine dosages or concentrations that kill 50 or 90% of the larvae.

Compound | Dermal (mice) Dosage % LC50 | Dermal (mice) Dosage % LC90
CC(C)C(C(=O)OC(C#N)c1cccc(Oc2ccccc2)c1)c1ccc(OC(F)F)cc1 (racemic) [(±)-α-cyano-m-phenoxybenzyl (+)-α-isopropyl-4-difluoromethox] [(±)-α-Cyano-m-phenoxybenzyl(+)-α-isopropyl 4-difluoromethoxyphenylacetate] | .0030% | .0056%
CC(C)C(C(=O)OC(C#N)c1cccc(Oc2ccccc2)c1)c1ccc(OC(F)F)cc1 (stereo not drawn) [α-cyano-m-phenoxybenzyl α-isopropyl-4-difluoromethoxyphenyla] [α-Cyano-m-phenoxybenzyl α-isopropyl-4-difluoromethoxyphenylacetate] | .0067% | .015%
